Drawing on patent publication US20240360179A1, “STAPLED PEPTIDES AND METHODS THEREOF” (FOG PHARMACEUTICALS, INC., priority 2021, published 2024), this text covers IC50 for 42 substances.

The test system of one experiment is COLO320DM cells. Kind of experiment: COLO320DM proliferation assay (CellTiter-Glo). The format is cell-based, human. Particulars: read-out: COLO320DM Proliferation Abs IC50. The method in brief:
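COLO320DM cells, 250 cells/well in RPMI-1640 with 4% FBS, attached 18-22 h, then exposed 96 h at 37 °C, 5% CO2 to 7-point 1/2 dilutions from 20 uM to 313 nM. Viability by CellTiter-Glo luminescence; IC50 derived from the dose curve.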
In general terms: ATP-based viability assays read luminescence as a measure of living cells.
Turning to “Ac-PL3-Asp-Npg-B5-Asp-3COOHF-Aib-Ala-Phe-Lys*3-PyrS2-3Thi-BztA-GlnR*3-Ala-Arg-Ala-Ala-Ala-Arg-Ala-NH2 [I-1156]”, the IC50 is ≤ 10000 nM. “Ac-PL3-Asp-DipA-B5-Asp-3COOHF-CyLeu-Ala-Phe-Lys*3-PyrS2-2F3MeF-BztA-GlnR*3-NH2 [I-1766]”: the IC50 is > 20000 nM.

“Ac-PL3-Asp-Npg-B5-Asp-3COOHF-Aib-Ala-Phe-Lys*3-PyrS2-3Thi-BztA-GlnR*3-Ala-Val-Pro-Ala-Leu-Arg-NH2 [I-816]”: the IC50 was ≤ 10000 nM. For “Ac-PL3-Asp-Npg-B5-Asp-3COOHF-Aib-Ala-Phe-Lys*3-PyrS2-2FF-34ClF-GlnR*3-NH2 [I-1537]”, the IC50 was ≤ 10000 nM. Still for that read-out and setting: the result for “Ac-PL3-Asp-DipA-B5-Asp-3COOHF-Ala-Ala-Phe-Lys*3-PyrS2-3Thi-34ClF-GlnR*3-Ala-Ala-[Oct-dPEG2]-Lys-NH2-NH2 [I-1789]” reads ≤ 10000 nM. Same read-out and setting: the result for “Ac-PL3-Asp-DipA-B5-aThr-3COOHF-nLeu-Ala-Phe-Lys*3-PyrS2-3Thi-34ClF-GlnR*3-NH2 [I-1639]” reads ≤ 10000 nM. As for “Ac-PL3-Asp-Ile-B5-Asp-3COOHF-Aib-Ala-Phe-Lys*3-PyrS2-Phe-34ClF-hGlnR*3-NH2 [I-1371]”, the IC50 is > 20000 nM. Take “Ac-PL3-Asp-Npg-B5-Asp-3COOHF-Aib-Ala-Phe-Lys*3-PyrS2-3Thi-BztA-GlnR*3-Ala-Ala-Leu-NH2 [I-805]”: the IC50 is ≤ 10000 nM. Same read-out and setting: next, “Ac-PL3-Asp-Npg-B5-Asp-3COOHF-Aib-Ala-Phe-Lys*3-PyrS2-3Thi-BztA-GlnR*3-Ala-Ala-Lys-Leu-Pro-Val-nLeu-NH2 [I-815]”: ≤ 10000 nM; “Ac-PL3-Asp-Chg-B5-Asp-3COOHF-Aib-Ala-Phe-Lys*3-PyrS2-Phe-34ClF-GlnR*3-NH2 [I-1048]”: ≤ 10000 nM.

In the next experiment the target is T1, TCF/LEF luciferase reporter in DLD1 cells (Homo sapiens, UniProt P35222).
T1 sequence (P35222 2-781): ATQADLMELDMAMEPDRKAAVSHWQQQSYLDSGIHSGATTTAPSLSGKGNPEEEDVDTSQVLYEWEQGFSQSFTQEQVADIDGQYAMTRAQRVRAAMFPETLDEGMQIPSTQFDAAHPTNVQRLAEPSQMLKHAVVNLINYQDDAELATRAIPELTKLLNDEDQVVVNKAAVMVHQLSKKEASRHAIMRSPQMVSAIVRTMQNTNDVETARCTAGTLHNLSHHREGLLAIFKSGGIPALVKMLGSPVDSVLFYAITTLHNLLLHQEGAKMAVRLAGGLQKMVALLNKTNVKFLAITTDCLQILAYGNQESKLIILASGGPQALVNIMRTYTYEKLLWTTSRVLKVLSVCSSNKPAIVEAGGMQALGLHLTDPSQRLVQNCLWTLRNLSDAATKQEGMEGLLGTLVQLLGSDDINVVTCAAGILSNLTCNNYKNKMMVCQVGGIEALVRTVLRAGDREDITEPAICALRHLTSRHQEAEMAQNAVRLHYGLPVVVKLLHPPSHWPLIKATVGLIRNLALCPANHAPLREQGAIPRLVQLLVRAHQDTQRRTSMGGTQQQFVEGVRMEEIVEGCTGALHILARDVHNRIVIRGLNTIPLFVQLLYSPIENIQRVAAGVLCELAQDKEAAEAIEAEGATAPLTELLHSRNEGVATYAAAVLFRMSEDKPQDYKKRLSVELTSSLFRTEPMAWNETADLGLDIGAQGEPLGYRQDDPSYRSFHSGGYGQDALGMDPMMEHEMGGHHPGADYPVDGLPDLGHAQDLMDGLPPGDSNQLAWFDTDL
Kind of experiment: TCF reporter assay in DLD1 cells (4% or 20% FBS). The format is cell-based. Particulars: read-out: DLD1 4% Abs IC50; DLD1 TCF reporter, 4% FBS.
Turning to “Ac-PL3-Asp-Npg-B5-Asp-TfeGA-Ala-Ala-Phe-Lys*3-PyrS2-2F3MeF-BztA-GlnR*3-Val-NH2 [I-129]”, the IC50 lay within 1000 to 5000 nM. For the substance “Ac-PL3-Asn-Npg-B5-Asp-3COOHF-Aib-Ala-Phe-Lys*3-PyrS2-2F3MeF-BztA-GlnR*3-Leu-Ser-NH2 [I-144]”, the IC50 fell in the range of 1000 to 5000 nM. In the case of “Ac-PL3-Asn-Npg-B5-Asp-3COOHF-Ala-Ala-Phe-Lys*3-PyrS2-2F3MeF-BztA-GlnR*3-Leu-Ser-NH2 [I-142]”, the IC50 was > 5000 nM. On the same count and under the same terms, next, “Ac-PL3-Asp-Npg-B5-Asp-3COOHF-Cbg-Ala-Phe-Lys*3-PyrS2-2F3MeF-BztA-GlnR*3-Leu-Ser-NH2 [I-140]”: ≤ 1000 nM; “Ac-PL3-Asp-Npg-B5-Asp-3COOHF-Ala-Ala-Phe-sAla*3-PyrS2-3Thi-BztA-TriAzLys*3-NH2 [I-24]”: 1000 to 5000 nM.

The next experiment addresses T2, full-length B-Catenin (Uniprot ID P35222) (Homo sapiens, UniProt P35222).
T2 construct: 10 nM full-length B-Catenin (Uniprot ID P35222)
T2 sequence (P35222 1-781): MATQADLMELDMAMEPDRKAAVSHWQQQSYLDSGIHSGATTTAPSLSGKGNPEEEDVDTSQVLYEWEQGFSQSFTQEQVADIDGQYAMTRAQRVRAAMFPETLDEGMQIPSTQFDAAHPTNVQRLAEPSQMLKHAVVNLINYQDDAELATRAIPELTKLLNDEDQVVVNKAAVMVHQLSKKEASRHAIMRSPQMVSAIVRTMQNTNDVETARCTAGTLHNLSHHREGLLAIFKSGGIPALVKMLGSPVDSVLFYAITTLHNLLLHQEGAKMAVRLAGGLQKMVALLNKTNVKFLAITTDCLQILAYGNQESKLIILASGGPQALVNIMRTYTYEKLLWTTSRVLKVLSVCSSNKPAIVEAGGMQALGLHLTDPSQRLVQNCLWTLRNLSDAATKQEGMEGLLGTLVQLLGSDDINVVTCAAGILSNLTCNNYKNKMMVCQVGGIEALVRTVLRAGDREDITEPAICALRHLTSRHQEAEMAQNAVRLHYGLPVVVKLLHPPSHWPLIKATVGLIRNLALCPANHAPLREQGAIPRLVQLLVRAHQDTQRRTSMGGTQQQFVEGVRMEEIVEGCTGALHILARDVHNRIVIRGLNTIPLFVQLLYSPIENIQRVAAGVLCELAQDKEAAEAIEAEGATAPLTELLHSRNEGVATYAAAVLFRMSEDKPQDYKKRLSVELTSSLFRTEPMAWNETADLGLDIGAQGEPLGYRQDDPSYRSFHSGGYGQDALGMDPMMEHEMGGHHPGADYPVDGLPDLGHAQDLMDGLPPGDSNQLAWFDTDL
Assay: not given
The format is binding. Particulars: competition fluorescence polarization; read-out: beta-Catenin FP IC50. In general terms: Polarisation of emitted light reports the rotation of a fluorescent probe.
Consider “4pentenyl-MePro-Asp-B5-Ala-Asp-3COOHF-Ala-Ala-Phe-PyrS2-Lys*3-3Thi-BztA-Ala-GlnR*3-NH2 [I-932]”, for which the IC50 is > 1000 nM. The same measure, in the same setting: next, “4pentenyl-ThioPro-Asp-B5-Ala-Asp-3COOHF-Ala-Ala-Phe-PyrS2-Lys*3-3Thi-BztA-Ala-GlnR*3-NH2 [I-933]”: > 1000 nM; “4pentenyl-MePro-Asp-B5-Ala-Asp-3COOHF-Ala-Ala-Phe-PyrS2-Lys*3-3Thi-BztA-Ala-GlnR*3-NH2 [I-993]”: 750 to 1000 nM.

The same experiment, now with this note: read-out: beta-Catenin FP IC50.
Turning to “Ac-PL3-Asp-Npg-B5-Asp-3COOHF-aMeDF-Ala-Phe-Lys*3-PyrS2-3Thi-BztA-GlnR*3-Ala-NH2 [I-457]”, the IC50 is < 50 nM.

Regarding “Ac-PL3-Asp-Npg-B5-Asp-3COOHF-Acp-Ala-Phe-Lys*3-PyrS2-3Thi-BztA-GlnR*3-Ala-NH2 [I-385]”, the IC50 is < 50 nM.

Consider “Ac-PL3-Asp-Npg-B5-Asp-3COOHF-Aib-Ala-Phe-Lys*3-PyrS2-3Thi-BztA-GlnR*3-Leu-aThr-Ala-NH2 [I-501]”, for which the IC50 was < 50 nM. As for “Ac-PL3-Asp-Npg-B5-Asp-3COOHF-DaMeS-Ala-Phe-Lys*3-PyrS2-3Thi-BztA-GlnR*3-Ala-NH2 [I-437]”, the IC50 was < 50 nM. Same read-out and setting: the result for “Ac-PL3-Asp-Npg-B5-Asp-3COOHF-Aib-Ala-Phe-Lys*3-PyrS2-nLeu-BztA-GlnR*3-Ala-NH2 [I-272]” reads < 50 nM; that for “Ac-PL3-Asp-Npg-B5-Asp-3COOHF-Aib-Ala-Phe-Lys*3-PyrS2-3Thi-BztA-GlnR*3-Leu-Thr-Ala-NH2 [I-499]”, < 50 nM.

As for “Ac-PL3-Asp-Npg-B5-Asp-3COOHF-Cha-Ala-Phe-Lys*3-PyrS2-2F3MeF-BztA-GlnR*3-Ala-NH2 [I-102]”, the IC50 was < 50 nM. In the case of “Ac-PL3-Asp-Npg-B5-Asp-3COOHF-Aib-Ala-Phe-Lys*3-PyrS2-3Thi-BztA-GlnR*3-dLeu-Ser-Leu-NH2 [I-468]”, the IC50 is < 50 nM. With “Ac-PL3-Asp-Cha-B5-Asp-3COOHF-Ala-Ala-Phe-Lys*3-PyrS2-2F3MeF-BztA-GlnR*3-Ala-NH2 [I-98]”, the IC50 was < 50 nM. Turning to “Ac-PL3-Asp-Npg-B5-Asp-3COOHF-Aib-Ala-Phe-Lys*3-PyrS2-Phe-BztA-GlnR*3-Ala-NH2 [I-280]”, the IC50 was < 50 nM. For the substance “Ac-PL3-Asp-Npg-B5-Asp-3COOHF-CyLeu-Ala-Phe-Lys*3-PyrS2-3Thi-BztA-GlnR*3-Ala-NH2 [I-383]”, the IC50 was < 50 nM. Still for that read-out and setting: the result for “Ac-PL3-Asp-Npg-B5-Asp-3COOHF-Aib-Ala-Phe-Lys*3-PyrS2-3Thi-BztA-GlnR*3-Leu-Ser-Ala-NH2 [I-497]” reads < 50 nM. For “Ac-PL3-Asp-Leu-B5-Asp-3COOHF-Ala-Ala-Phe-dLys*3-PyrS2-3Thi-BztA-GlnR*3-NH2 [I-10]”, the IC50 was < 50 nM. In the case of “Ac-PL3-Asp-Npg-B5-Asp-3COOHF-Aib-Ala-Phe-Lys*3-PyrS2-3Thi-BztA-GlnR*3-Val-Aib-NH2 [I-408]”, the IC50 is < 50 nM. As to “Ac-PL3-Asp-Npg-B5-Asp-3COOHF-Aib-Ala-Phe-TriAzLys*3-PyrS2-Phe-BztA-sAbu*3-Ala-NH2 [I-420]”, the IC50 is < 50 nM.

For the substance “Ac-PL3-Asp-Npg-B5-Asp-3COOHF-Aib-Ala-Phe-Lys*3-PyrS2-3Thi-BztA-GlnR*3-Thr-Aib-NH2 [I-412]”, the IC50 is < 50 nM.

“Ac-PL3-Asp-Npg-B5-Asp-3COOHF-Aib-Ala-Phe-Lys*3-PyrS2-3Thi-BztA-GlnR*3-dAla-Ser-NH2 [I-461]”: the IC50 was < 50 nM. Still for that read-out and setting: the result for “Ac-PL3-Asp-Leu-B5-Asp-3COOHF-Ala-Ala-Phe-Lys*3-PyrS2-3Thi-BztA-GlnR*3-NH2 [I-12]” reads < 50 nM. Same read-out and setting: the result for “Ac-PL3-Asp-Leu-B5-Asp-3COOHF-Ala-Ala-Phe-GlnR*3-PyrS2-3Thi-BztA-Lys*3-NH2 [I-16]” reads < 50 nM; that for “Ac-PL3-Asp-Npg-B5-Asp-3COOHF-Aib-Ala-Phe-Lys*3-PyrS2-3Thi-BztA-GlnR*3-Leu-Glu-Ala-NH2 [I-495]”, < 50 nM. Same read-out and setting: next, “Ac-PL3-Asp-Npg-B5-Asp-3COOHF-Aib-Ala-nLeu-Lys*3-PyrS2-Phe-34ClF-GlnR*3-Ala-NH2 [I-480]”: < 50 nM; “Ac-PL3-Asp-Npg-B5-Asp-3COOHF-Aib-Ala-Phe-Lys*3-PyrS2-Phe-2NapA-GlnR*3-Ala-NH2 [I-484]”: < 50 nM.

The experiment is the same for the next values; noted with them: read-out: beta-catenin TCF4 competition FP assay IC50.
For the substance “Ac-PL3-Asp-Npg-B5-Asp-3COOHF-Aib-Ala-Phe-[oXyl]Cys-PyrS2-2F3MeF-BztA-Cys-Ala-NH2 [I-376]”, the IC50 worked out at 220 nM. The same measure, in the same setting: the result for “Ac-PL3-Asp-Npg-B5-Asp-3COOHF-Aib-Ala-Phe-[pXyl]Cys-PyrS2-2F3MeF-BztA-Cys-Ala-NH2 [I-377]” reads 93 nM.
